Results: patent US8940742B2, “Heterocyclic compounds and uses thereof” (Infinity Pharmaceuticals, Inc., priority 2012, dated 2015)

Molecular target: T1, PI3K γ (Homo sapiens, UniProt P48736)
T1 construct: purchased Millipore
Assay: PI3-Kinase Promega ADP-Glo Max assay
Format: biochemical
Conditions: 40 nM kinase, 3 mM ATP, 500 uM diC8-PtdInsP
Description: Promega ADP-Glo Max assay kit (Cat. No. V7002) was utilized to determine IC50 values for α, β, δ and γ isoforms of human Class I PI3 kinases (Millipore). […] Reactions were incubated at room temperature for 2 hours followed by addition of 25 uL of stop solution. After a 40-minute incubation at room temperature, 50 uL of Promega detection mix was added followed by incubation for 1 hour at room temperature. Plates were then read on Envision plate reader in luminescence mode. Data was converted to % inhibition using the following equation below:
[formula] where S is the sample luminescence, Pos is a positive control without added PI3K, Neg is the negative control without added compound. Data was then plotted as % inhibition vs compound concentration.
(§1) Certain compounds provided herein were tested in PI3-Kinase Promega Assay using procedures as described above to determine IC50 values for α, β, δ and/or γ isoforms.

T1 sequence (P48736 whole entry): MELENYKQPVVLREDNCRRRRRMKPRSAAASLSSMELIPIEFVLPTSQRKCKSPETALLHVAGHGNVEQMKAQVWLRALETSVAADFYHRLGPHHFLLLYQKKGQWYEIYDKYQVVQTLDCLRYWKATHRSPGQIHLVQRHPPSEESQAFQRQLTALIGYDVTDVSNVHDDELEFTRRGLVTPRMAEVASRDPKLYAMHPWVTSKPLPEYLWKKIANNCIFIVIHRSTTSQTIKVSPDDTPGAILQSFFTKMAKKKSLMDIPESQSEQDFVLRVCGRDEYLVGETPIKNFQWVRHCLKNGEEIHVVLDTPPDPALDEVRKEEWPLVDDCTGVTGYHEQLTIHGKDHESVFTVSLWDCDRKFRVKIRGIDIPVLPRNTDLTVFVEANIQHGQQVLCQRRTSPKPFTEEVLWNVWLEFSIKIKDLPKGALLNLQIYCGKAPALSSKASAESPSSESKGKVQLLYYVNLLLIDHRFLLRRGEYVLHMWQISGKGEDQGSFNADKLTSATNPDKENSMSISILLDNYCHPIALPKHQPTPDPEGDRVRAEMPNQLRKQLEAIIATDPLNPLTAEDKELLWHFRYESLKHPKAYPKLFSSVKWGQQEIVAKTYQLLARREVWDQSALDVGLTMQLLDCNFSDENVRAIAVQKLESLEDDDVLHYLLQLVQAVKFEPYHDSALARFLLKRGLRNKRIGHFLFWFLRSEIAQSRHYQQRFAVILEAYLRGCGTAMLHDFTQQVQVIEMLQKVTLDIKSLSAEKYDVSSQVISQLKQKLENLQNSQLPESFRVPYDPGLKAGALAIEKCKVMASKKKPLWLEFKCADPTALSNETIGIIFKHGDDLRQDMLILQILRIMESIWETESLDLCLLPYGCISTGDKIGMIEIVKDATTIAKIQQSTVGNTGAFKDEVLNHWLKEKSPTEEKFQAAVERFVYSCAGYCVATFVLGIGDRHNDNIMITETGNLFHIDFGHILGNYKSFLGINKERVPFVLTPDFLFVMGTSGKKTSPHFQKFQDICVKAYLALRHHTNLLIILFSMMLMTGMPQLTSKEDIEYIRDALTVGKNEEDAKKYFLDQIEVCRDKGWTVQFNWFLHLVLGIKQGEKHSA

Compound | IC50
C[C@H](NC(=O)c1nc(-c2cccc(S(=O)(=O)N3CCOCC3)c2)cnc1N)c1cc2cccc(Cl)c2c(=O)n1-c1ccccc1 [Compound 95] | > 10 µM
C[C@H](NC(=O)c1c(N)nn2cccnc12)c1cc2cccc(N3CCN(C)CC3)c2c(=O)n1-c1ccccc1 [Compound 264] | > 10 µM
COc1ncc(-c2cccc3cc([C@H](C)NC(=O)c4c(N)nn5cccnc45)n(-c4ccccc4)c(=O)c23)s1 [Compound 246] | 0.1 to 1 µM
C[C@H](NC(=O)c1nc(-c2cccc(NS(C)(=O)=O)c2)cnc1N)c1cc2cccc(N3CCOCC3)c2c(=O)n1-c1ccccc1 [Compound 263] | 1 to 10 µM
C[C@H](NC(=O)c1c(N)nn2cccnc12)c1c(Br)c2cccc(F)c2c(=O)n1-c1ccccc1 [Compound 255] | 0.1 to 1 µM
C[C@H](NC(=O)c1c(N)nn2cccnc12)c1cc2cccc(/C=N\O)c2c(=O)n1-c1ccccc1 [Compound 226] | 0.1 to 1 µM
CC(C)c1ccnc2c(C(=O)N[C@@H](C)c3cc4cccc(Cl)c4c(=O)n3-c3ccccc3)c(N)nn12 [Compound 177] | > 10 µM
COc1ccc(-c2cnc(N)c(C(=O)N[C@@H](C)c3cc4cccc(Cl)c4c(=O)n3-c3ccccc3)n2)cc1F [Compound 94] | 1 to 10 µM
C[C@H](NC(=O)c1nc(-c2cncc(NS(C)(=O)=O)c2)cnc1N)c1cc2cccc(Cl)c2c(=O)n1C1CC1 [Compound 172] | < 0.1 µM
C[C@H](NC(=O)c1c(N)nn2cccnc12)c1cc2cccc(CN(C)C)c2c(=O)n1-c1ccccc1 [Compound 231] | > 10 µM

The next lines start with the values.

IC50 | Compound
> 10 µM | C[C@H](NC(=O)c1c(N)nn2cccnc12)c1cc2cccc(NC3CCCCC3)c2c(=O)n1-c1ccccc1 [Compound 265]
1 to 10 µM | Cc1cnc(C(=O)N[C@@H](C)c2c(Br)c3cccc(Cl)c3c(=O)n2-c2ccccc2)c(N)n1 [Compound 288]
> 10 µM | C[C@H](NC(=O)c1c(N)nn2cccnc12)c1nn2ccc(-c3cnn(C)c3)c2c(=O)n1-c1ccccc1 [Compound 287]
1 to 10 µM | C[C@H](NC(=O)c1c(N)nn2cccnc12)c1cc2cccc(OC(F)(F)F)c2c(=O)n1-c1ccccc1 [Compound 302]
> 10 µM | C[C@H](NC(=O)c1cc(-c2cccc(NS(C)(=O)=O)c2)cnc1N)c1cc2cccc(Cl)c2c(=O)n1-c1ccccc1 [Compound 306]
0.1 to 1 µM | C[C@H](NC(=O)c1nccnc1N)c1nc2cccc(Cl)c2c(=O)n1-c1ccccc1 [Compound 289]

Molecular target: T2, PI3K β (Homo sapiens, UniProt P42338)
T2 construct: purchased Millipore
T2 sequence (P42338 whole entry): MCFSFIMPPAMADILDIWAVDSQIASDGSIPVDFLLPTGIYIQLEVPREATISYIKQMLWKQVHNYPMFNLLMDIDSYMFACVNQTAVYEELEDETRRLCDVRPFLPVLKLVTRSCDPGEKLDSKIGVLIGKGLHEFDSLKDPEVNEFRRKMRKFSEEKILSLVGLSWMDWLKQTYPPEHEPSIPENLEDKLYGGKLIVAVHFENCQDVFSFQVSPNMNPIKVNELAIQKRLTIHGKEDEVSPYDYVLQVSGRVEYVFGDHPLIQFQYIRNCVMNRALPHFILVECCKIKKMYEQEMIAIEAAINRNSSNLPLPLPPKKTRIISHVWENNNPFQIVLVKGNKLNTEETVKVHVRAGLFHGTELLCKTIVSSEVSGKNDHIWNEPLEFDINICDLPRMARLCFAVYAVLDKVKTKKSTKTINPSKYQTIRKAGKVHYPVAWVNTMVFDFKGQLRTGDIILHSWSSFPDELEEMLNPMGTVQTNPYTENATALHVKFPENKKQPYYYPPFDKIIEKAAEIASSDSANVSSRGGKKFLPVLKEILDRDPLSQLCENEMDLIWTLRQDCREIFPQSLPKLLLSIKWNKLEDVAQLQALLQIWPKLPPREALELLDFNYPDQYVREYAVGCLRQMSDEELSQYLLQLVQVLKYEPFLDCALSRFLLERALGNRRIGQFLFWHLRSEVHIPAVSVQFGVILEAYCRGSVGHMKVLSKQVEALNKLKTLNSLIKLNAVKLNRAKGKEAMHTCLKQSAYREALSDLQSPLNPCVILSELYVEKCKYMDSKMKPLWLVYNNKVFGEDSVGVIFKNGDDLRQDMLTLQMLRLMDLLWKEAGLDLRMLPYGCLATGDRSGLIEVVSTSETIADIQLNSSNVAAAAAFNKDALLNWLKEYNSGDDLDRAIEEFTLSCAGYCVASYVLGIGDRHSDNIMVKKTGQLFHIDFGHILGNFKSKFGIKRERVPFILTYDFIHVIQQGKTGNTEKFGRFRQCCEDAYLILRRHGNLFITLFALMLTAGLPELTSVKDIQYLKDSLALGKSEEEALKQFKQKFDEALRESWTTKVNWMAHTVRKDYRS
T2 sequence (P27986 whole entry partner): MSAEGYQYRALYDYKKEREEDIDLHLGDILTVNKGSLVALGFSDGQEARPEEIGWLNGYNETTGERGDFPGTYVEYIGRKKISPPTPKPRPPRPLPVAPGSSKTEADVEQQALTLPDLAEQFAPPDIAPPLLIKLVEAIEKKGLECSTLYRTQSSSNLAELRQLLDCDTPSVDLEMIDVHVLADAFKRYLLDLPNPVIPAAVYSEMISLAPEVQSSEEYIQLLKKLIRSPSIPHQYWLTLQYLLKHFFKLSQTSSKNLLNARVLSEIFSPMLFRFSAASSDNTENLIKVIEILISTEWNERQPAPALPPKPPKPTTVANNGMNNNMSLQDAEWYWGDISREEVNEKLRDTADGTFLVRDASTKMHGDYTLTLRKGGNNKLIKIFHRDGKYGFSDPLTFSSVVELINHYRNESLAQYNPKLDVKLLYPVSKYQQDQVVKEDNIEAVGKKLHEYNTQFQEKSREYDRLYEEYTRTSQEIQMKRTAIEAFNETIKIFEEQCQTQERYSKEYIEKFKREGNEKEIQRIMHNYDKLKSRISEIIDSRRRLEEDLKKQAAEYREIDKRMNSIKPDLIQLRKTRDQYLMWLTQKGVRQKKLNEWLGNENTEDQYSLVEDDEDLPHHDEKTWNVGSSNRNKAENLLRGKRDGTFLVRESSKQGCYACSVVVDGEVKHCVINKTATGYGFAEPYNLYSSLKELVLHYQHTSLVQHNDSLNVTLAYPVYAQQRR
Assay: PI3-Kinase Promega ADP-Glo Max assay
Format: biochemical
Conditions: 40 nM kinase, 3 mM ATP, 500 uM diC8-PtdInsP
Description: (§2) Promega ADP-Glo Max assay kit (Cat. No. V7002) was utilized to determine IC50 values for α, β, δ and γ isoforms of human Class I PI3 kinases (Millipore). Samples of kinase (20 nM α or δ, 40 nM β or γ isoform) were incubated with compound for 15 minutes at room temperature in reaction buffer (15 mM HEPES pH 7.4, 20 mM NaCl, 1 mM EGTA, 0.02% Tween 20, 10 mM MgCl2, 0.2 mg/mL bovine-γ-globulins) followed by addition of ATP/diC8-PtdInsP mixture to give final concentrations of 3 mM ATP and 500 uM diC8-PtdInsP. Reactions were incubated at room temperature for 2 hours followed by addition of 25 uL of stop solution. After a 40-minute incubation at room temperature, 50 uL of Promega detection mix was added followed by incubation for 1 hour at room temperature. Plates were then read on Envision plate reader in luminescence mode. Data was converted to % inhibition using the following equation below:
(§3) [formula] where S is the sample luminescence, Pos is a positive control without added PI3K, Neg is the negative control without added compound. Data was then plotted as % inhibition vs compound concentration. Data fit to 4 parameter logistic equation to determine IC50 values: […]
as §1

Compound | IC50
C[C@H](NC(=O)c1nc(-c2cccc(S(=O)(=O)N3CCOCC3)c2)cnc1N)c1cc2cccc(Cl)c2c(=O)n1-c1ccccc1 [Compound 95] | > 10 µM
C[C@H](NC(=O)c1c(N)nn2cccnc12)c1cc2cccc(N3CCN(C)CC3)c2c(=O)n1-c1ccccc1 [Compound 264] | > 10 µM
COc1ncc(-c2cccc3cc([C@H](C)NC(=O)c4c(N)nn5cccnc45)n(-c4ccccc4)c(=O)c23)s1 [Compound 246] | > 10 µM
C[C@H](NC(=O)c1nc(-c2cccc(NS(C)(=O)=O)c2)cnc1N)c1cc2cccc(N3CCOCC3)c2c(=O)n1-c1ccccc1 [Compound 263] | > 10 µM
C[C@H](NC(=O)c1c(N)nn2cccnc12)c1c(Br)c2cccc(F)c2c(=O)n1-c1ccccc1 [Compound 255] | 1 to 10 µM
C[C@H](NC(=O)c1c(N)nn2cccnc12)c1cc2cccc(/C=N\O)c2c(=O)n1-c1ccccc1 [Compound 226] | > 10 µM
CC(C)c1ccnc2c(C(=O)N[C@@H](C)c3cc4cccc(Cl)c4c(=O)n3-c3ccccc3)c(N)nn12 [Compound 177] | > 10 µM
COc1ccc(-c2cnc(N)c(C(=O)N[C@@H](C)c3cc4cccc(Cl)c4c(=O)n3-c3ccccc3)n2)cc1F [Compound 94] | > 10 µM
C[C@H](NC(=O)c1nc(-c2cncc(NS(C)(=O)=O)c2)cnc1N)c1cc2cccc(Cl)c2c(=O)n1C1CC1 [Compound 172] | < 0.1 µM
C[C@H](NC(=O)c1c(N)nn2cccnc12)c1cc2cccc(CN(C)C)c2c(=O)n1-c1ccccc1 [Compound 231] | > 10 µM

The next lines start with the values.

IC50 | Compound
> 10 µM | C[C@H](NC(=O)c1c(N)nn2cccnc12)c1cc2cccc(NC3CCCCC3)c2c(=O)n1-c1ccccc1 [Compound 265]
> 10 µM | Cc1cnc(C(=O)N[C@@H](C)c2c(Br)c3cccc(Cl)c3c(=O)n2-c2ccccc2)c(N)n1 [Compound 288]
> 10 µM | C[C@H](NC(=O)c1c(N)nn2cccnc12)c1nn2ccc(-c3cnn(C)c3)c2c(=O)n1-c1ccccc1 [Compound 287]
> 10 µM | C[C@H](NC(=O)c1c(N)nn2cccnc12)c1cc2cccc(OC(F)(F)F)c2c(=O)n1-c1ccccc1 [Compound 302]
> 10 µM | C[C@H](NC(=O)c1cc(-c2cccc(NS(C)(=O)=O)c2)cnc1N)c1cc2cccc(Cl)c2c(=O)n1-c1ccccc1 [Compound 306]
1 to 10 µM | C[C@H](NC(=O)c1nccnc1N)c1nc2cccc(Cl)c2c(=O)n1-c1ccccc1 [Compound 289]

Molecular target: T3, PI3K δ (Homo sapiens, UniProt O00329)
T3 construct: purchased Millipore
T3 sequence (O00329 whole entry): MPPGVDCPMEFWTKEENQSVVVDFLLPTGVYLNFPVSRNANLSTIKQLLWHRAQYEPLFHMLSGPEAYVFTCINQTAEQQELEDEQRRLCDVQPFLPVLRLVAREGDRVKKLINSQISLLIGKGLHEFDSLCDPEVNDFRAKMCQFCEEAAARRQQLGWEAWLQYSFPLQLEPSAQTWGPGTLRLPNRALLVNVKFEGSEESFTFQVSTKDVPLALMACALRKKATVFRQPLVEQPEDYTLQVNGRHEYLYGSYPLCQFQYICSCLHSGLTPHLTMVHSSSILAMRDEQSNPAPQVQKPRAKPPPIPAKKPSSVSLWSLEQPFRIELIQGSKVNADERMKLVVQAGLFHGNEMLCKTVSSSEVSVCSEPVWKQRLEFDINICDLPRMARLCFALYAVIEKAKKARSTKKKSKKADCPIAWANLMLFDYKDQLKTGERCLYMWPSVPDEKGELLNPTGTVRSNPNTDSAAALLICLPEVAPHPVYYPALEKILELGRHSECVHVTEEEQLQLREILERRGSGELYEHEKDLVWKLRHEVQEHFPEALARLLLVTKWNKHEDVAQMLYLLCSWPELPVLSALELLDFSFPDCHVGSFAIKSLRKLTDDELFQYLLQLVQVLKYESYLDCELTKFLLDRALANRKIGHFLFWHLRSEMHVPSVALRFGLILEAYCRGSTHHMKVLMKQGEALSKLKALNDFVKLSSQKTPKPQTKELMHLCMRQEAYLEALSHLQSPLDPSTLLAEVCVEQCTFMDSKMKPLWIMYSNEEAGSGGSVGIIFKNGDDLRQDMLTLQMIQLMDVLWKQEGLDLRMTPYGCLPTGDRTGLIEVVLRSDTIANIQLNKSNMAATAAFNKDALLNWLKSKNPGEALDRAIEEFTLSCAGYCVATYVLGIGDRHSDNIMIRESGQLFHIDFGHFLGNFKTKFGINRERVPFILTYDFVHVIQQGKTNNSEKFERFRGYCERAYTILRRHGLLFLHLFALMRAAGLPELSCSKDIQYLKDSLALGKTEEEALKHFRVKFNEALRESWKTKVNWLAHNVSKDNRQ
T3 sequence (P27986 whole entry partner): as the sequence (P27986 whole entry partner) above
Assay: PI3-Kinase Promega ADP-Glo Max assay
Format: biochemical
Conditions: 20 nM kinase, 3 mM ATP, 500 uM diC8-PtdInsP
Description: as §2, §3, §1

Compound | IC50
C[C@H](NC(=O)c1nc(-c2cccc(S(=O)(=O)N3CCOCC3)c2)cnc1N)c1cc2cccc(Cl)c2c(=O)n1-c1ccccc1 [Compound 95] | > 10 µM
C[C@H](NC(=O)c1c(N)nn2cccnc12)c1cc2cccc(N3CCN(C)CC3)c2c(=O)n1-c1ccccc1 [Compound 264] | > 10 µM
COc1ncc(-c2cccc3cc([C@H](C)NC(=O)c4c(N)nn5cccnc45)n(-c4ccccc4)c(=O)c23)s1 [Compound 246] | 1 to 10 µM
C[C@H](NC(=O)c1nc(-c2cccc(NS(C)(=O)=O)c2)cnc1N)c1cc2cccc(N3CCOCC3)c2c(=O)n1-c1ccccc1 [Compound 263] | > 10 µM
C[C@H](NC(=O)c1c(N)nn2cccnc12)c1c(Br)c2cccc(F)c2c(=O)n1-c1ccccc1 [Compound 255] | 1 to 10 µM
C[C@H](NC(=O)c1c(N)nn2cccnc12)c1cc2cccc(/C=N\O)c2c(=O)n1-c1ccccc1 [Compound 226] | 1 to 10 µM
CC(C)c1ccnc2c(C(=O)N[C@@H](C)c3cc4cccc(Cl)c4c(=O)n3-c3ccccc3)c(N)nn12 [Compound 177] | > 10 µM
COc1ccc(-c2cnc(N)c(C(=O)N[C@@H](C)c3cc4cccc(Cl)c4c(=O)n3-c3ccccc3)n2)cc1F [Compound 94] | 1 to 10 µM
C[C@H](NC(=O)c1nc(-c2cncc(NS(C)(=O)=O)c2)cnc1N)c1cc2cccc(Cl)c2c(=O)n1C1CC1 [Compound 172] | < 0.1 µM
C[C@H](NC(=O)c1c(N)nn2cccnc12)c1cc2cccc(CN(C)C)c2c(=O)n1-c1ccccc1 [Compound 231] | < 0.1 µM

Further lines, results first:

IC50 | Compound
> 10 µM | C[C@H](NC(=O)c1c(N)nn2cccnc12)c1cc2cccc(NC3CCCCC3)c2c(=O)n1-c1ccccc1 [Compound 265]
1 to 10 µM | Cc1cnc(C(=O)N[C@@H](C)c2c(Br)c3cccc(Cl)c3c(=O)n2-c2ccccc2)c(N)n1 [Compound 288]
> 10 µM | C[C@H](NC(=O)c1c(N)nn2cccnc12)c1nn2ccc(-c3cnn(C)c3)c2c(=O)n1-c1ccccc1 [Compound 287]
1 to 10 µM | C[C@H](NC(=O)c1c(N)nn2cccnc12)c1cc2cccc(OC(F)(F)F)c2c(=O)n1-c1ccccc1 [Compound 302]
> 10 µM | C[C@H](NC(=O)c1cc(-c2cccc(NS(C)(=O)=O)c2)cnc1N)c1cc2cccc(Cl)c2c(=O)n1-c1ccccc1 [Compound 306]
< 0.1 µM | C[C@H](NC(=O)c1nccnc1N)c1nc2cccc(Cl)c2c(=O)n1-c1ccccc1 [Compound 289]

Molecular target: T4, PI3K α (Homo sapiens, UniProt P42336)
T4 construct: purchased Millipore
T4 sequence (P42336 whole entry): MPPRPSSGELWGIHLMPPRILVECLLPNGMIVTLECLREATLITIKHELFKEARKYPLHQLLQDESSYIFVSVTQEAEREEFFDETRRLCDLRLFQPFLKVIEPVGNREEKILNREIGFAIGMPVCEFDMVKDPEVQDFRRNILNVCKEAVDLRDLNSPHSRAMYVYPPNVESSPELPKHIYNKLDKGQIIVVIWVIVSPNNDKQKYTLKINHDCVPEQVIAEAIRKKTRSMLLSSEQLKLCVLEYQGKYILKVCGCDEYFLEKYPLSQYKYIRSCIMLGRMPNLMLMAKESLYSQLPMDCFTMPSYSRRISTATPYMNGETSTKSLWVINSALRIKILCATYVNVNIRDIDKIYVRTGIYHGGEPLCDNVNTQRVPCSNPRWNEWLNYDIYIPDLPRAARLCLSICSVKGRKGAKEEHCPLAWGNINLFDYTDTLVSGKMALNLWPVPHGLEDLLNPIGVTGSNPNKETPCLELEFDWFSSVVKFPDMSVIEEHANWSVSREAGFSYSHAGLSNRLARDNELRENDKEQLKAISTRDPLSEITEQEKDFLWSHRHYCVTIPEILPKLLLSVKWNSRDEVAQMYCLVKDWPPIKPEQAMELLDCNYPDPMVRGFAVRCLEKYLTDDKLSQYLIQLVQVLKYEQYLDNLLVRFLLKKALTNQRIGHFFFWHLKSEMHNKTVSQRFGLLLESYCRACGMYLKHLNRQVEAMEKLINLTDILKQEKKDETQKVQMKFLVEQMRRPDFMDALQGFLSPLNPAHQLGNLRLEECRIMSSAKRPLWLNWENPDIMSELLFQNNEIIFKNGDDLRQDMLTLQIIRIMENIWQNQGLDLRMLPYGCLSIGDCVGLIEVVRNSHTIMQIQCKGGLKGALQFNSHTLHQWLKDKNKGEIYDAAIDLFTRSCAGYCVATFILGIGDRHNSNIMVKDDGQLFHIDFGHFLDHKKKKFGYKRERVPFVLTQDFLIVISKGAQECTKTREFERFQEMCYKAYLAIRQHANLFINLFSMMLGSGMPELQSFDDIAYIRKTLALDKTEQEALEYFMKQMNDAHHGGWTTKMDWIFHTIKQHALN
T4 sequence (P27986 whole entry partner): as the sequence (P27986 whole entry partner) above
Assay: PI3-Kinase Promega ADP-Glo Max assay
Format: biochemical
Conditions: 20 nM kinase, 3 mM ATP, 500 uM diC8-PtdInsP
Description: as §2, §3, §1

Compound | IC50
C[C@H](NC(=O)c1nc(-c2cccc(S(=O)(=O)N3CCOCC3)c2)cnc1N)c1cc2cccc(Cl)c2c(=O)n1-c1ccccc1 [Compound 95] | > 10 µM
C[C@H](NC(=O)c1c(N)nn2cccnc12)c1cc2cccc(N3CCN(C)CC3)c2c(=O)n1-c1ccccc1 [Compound 264] | > 10 µM
COc1ncc(-c2cccc3cc([C@H](C)NC(=O)c4c(N)nn5cccnc45)n(-c4ccccc4)c(=O)c23)s1 [Compound 246] | > 10 µM
C[C@H](NC(=O)c1nc(-c2cccc(NS(C)(=O)=O)c2)cnc1N)c1cc2cccc(N3CCOCC3)c2c(=O)n1-c1ccccc1 [Compound 263] | > 10 µM
C[C@H](NC(=O)c1c(N)nn2cccnc12)c1c(Br)c2cccc(F)c2c(=O)n1-c1ccccc1 [Compound 255] | 1 to 10 µM
C[C@H](NC(=O)c1c(N)nn2cccnc12)c1cc2cccc(/C=N\O)c2c(=O)n1-c1ccccc1 [Compound 226] | > 10 µM
CC(C)c1ccnc2c(C(=O)N[C@@H](C)c3cc4cccc(Cl)c4c(=O)n3-c3ccccc3)c(N)nn12 [Compound 177] | > 10 µM
COc1ccc(-c2cnc(N)c(C(=O)N[C@@H](C)c3cc4cccc(Cl)c4c(=O)n3-c3ccccc3)n2)cc1F [Compound 94] | > 10 µM
C[C@H](NC(=O)c1nc(-c2cncc(NS(C)(=O)=O)c2)cnc1N)c1cc2cccc(Cl)c2c(=O)n1C1CC1 [Compound 172] | < 0.1 µM
C[C@H](NC(=O)c1c(N)nn2cccnc12)c1cc2cccc(CN(C)C)c2c(=O)n1-c1ccccc1 [Compound 231] | > 10 µM

The remaining lines, values ahead:

IC50 | Compound
> 10 µM | C[C@H](NC(=O)c1c(N)nn2cccnc12)c1cc2cccc(NC3CCCCC3)c2c(=O)n1-c1ccccc1 [Compound 265]
> 10 µM | Cc1cnc(C(=O)N[C@@H](C)c2c(Br)c3cccc(Cl)c3c(=O)n2-c2ccccc2)c(N)n1 [Compound 288]
> 10 µM | C[C@H](NC(=O)c1c(N)nn2cccnc12)c1nn2ccc(-c3cnn(C)c3)c2c(=O)n1-c1ccccc1 [Compound 287]
> 10 µM | C[C@H](NC(=O)c1c(N)nn2cccnc12)c1cc2cccc(OC(F)(F)F)c2c(=O)n1-c1ccccc1 [Compound 302]
> 10 µM | C[C@H](NC(=O)c1cc(-c2cccc(NS(C)(=O)=O)c2)cnc1N)c1cc2cccc(Cl)c2c(=O)n1-c1ccccc1 [Compound 306]
> 10 µM | C[C@H](NC(=O)c1nccnc1N)c1nc2cccc(Cl)c2c(=O)n1-c1ccccc1 [Compound 289]
